# Assay results published in patent US20230303575A1, “FGFR AND MUTATION INHIBITOR THEREOF, PREPARATION METHOD THEREFOR AND USE THEREOF” (Abbisko Therapeutics Co., Ltd., priority 2020, published 2023).
# Key:
# Format in all cases: cell-based
# FGFR2 V564F = target: T1, FGFR2 V564F (Homo sapiens, UniProt P21802, V564F); assay: Cell proliferation assay for Tel-FGFR2 V564F in BaF3; conditions: BaF3 cells expressing FGFR2 V564F fusion, 48 hrs, CellTiter Glo
# T1 construct: P41212 (Transcription factor ETV6)
# Experimental: (§1) By transfection, cell strains of the intracellular kinase domain fusion protein of TEL-FGFR2 WT or the intracellular domain fusion proteins containing FGFR2 V564, V564F, V564L, N549K and K659M mutations were stably expressed in Baf cells. On day 1, the cell suspension was plated into a 96-well plate containing growth medium (DMEM containing 1% Glutamax, 10% FBS and 1% Pen/Strep) at 2000-4000 cells/90 μL/per well, and then the mixture was incubated overnight at 37° C. and 5% CO2. On day 2, 10 μL of growth medium containing a 10-fold stock solution of test compound was added to the cell culture (9 dose points, 3× serial dilution, starting from 1 μM, finally 0.3% DMSO). After incubation at 37° C. and 5% CO2 for 48 hrs, 50 μL of CellTiter Glo (CTG) reagent was added to the cell-containing 96-well plate on day 3, and the plate was then incubated at room temperature for 10 min. Then relative light units (RLUs) were measured on a microplate reader with a luminescence detection module. RLU values were normalized to % survival, and concentration-response curves were plotted using Prism to calculate IC50 (nM).
# FGFR2 V564L = target: T2, FGFR2 V564L (Homo sapiens, UniProt P21802, V564L); assay: Cell proliferation assay for Tel-FGFR2 V564L in BaF3; conditions: BaF3 cells expressing FGFR2 V564L fusion, 48 hrs, CellTiter Glo
# T2 construct: P41212 (Transcription factor ETV6)
# Experimental: as §1
# FGFR2 V564I = target: T3, FGFR2 V564I (Homo sapiens, UniProt P21802, V564I); assay: Cell proliferation assay for Tel-FGFR2 V564I in BaF3; conditions: BaF3 cells expressing FGFR2 V564I fusion, 48 hrs, CellTiter Glo
# T3 construct: P41212 (Transcription factor ETV6)
# Experimental: as §1
# FGFR2 N549K = target: T4, FGFR2 N549K (Homo sapiens, UniProt P21802, N549K); assay: Cell proliferation assay for Tel-FGFR2 N549K in BaF3; conditions: BaF3 cells expressing FGFR2 N549K fusion, 48 hrs, CellTiter Glo
# T4 construct: P41212 (Transcription factor ETV6)
# Experimental: as §1
# FGFR2 K659M = target: T5, FGFR2 K659M (Homo sapiens, UniProt P21802, K659M); assay: Cell proliferation assay for Tel-FGFR2 K659M in BaF3; conditions: BaF3 cells expressing FGFR2 K659M fusion, 48 hrs, CellTiter Glo
# T5 construct: P41212 (Transcription factor ETV6)
# Experimental: as §1
# FGFR3 V555M = target: T6, FGFR3 V555M (Homo sapiens, UniProt P22607, V555M); assay: Cell proliferation assay for FGFR3 V555M in BaF3; conditions: BaF3 cells expressing FGFR3 V555M fusion, 48 hrs, CellTiter Glo
# T6 construct: P41212 (Transcription factor ETV6)
# Experimental: (§2) For the compounds of the Examples of the present invention, cell strains of TEL-FGFR3 WT intracellular kinase domain fusion protein or intracellular domain fusion protein containing FGFR3 V555M or FGFR3 N540K mutation were stably expressed in Baf cells by transfection and were used to determine the cell proliferation effect of BaF3-Tel-FGFR3 WT. FGFR3 V555M or FGFR3 N540K. The specific test process was as follows: • 1) The cell suspension was plated into a 96-well plate containing growth medium (DMEM containing 1% Glutamax, 10% FBS and 1% Pen/Strep) at 2000-4000 cells/90 μL/per well, and then the mixture was incubated overnight at 37° C. and 5% CO2. • 2) 10 μL of growth medium containing a 10-fold stock solution of test compound was added to the cell culture (9 dose points, 3× serial dilution, starting from 1 μM, finally 0.3% DMSO). • 3) The mixture was incubated at 37° C. and 5% CO2 for 48 hrs. • 4) 50 μL of CellTiter Glo (CTG) reagent was added to the cell-containing 96-well plate, and the plate was then incubated at room temperature for 10 min. • 5) Relative light units (RLUs) were measured on a microplate reader with a luminescence detection module. RLU values were normalized to % survival, and concentration-response curves were plotted using Prism to calculate IC50 (nM).
# FGFR3 N540K = target: T7, FGFR3 N540K (Homo sapiens, UniProt P22607, N540K); assay: Cell proliferation assay for FGFR3 N540K in BaF3; conditions: BaF3 cells expressing FGFR3 N540K fusion, 48 hrs, CellTiter Glo
# T7 construct: P41212 (Transcription factor ETV6)
# Experimental: as §2
# T4 sequence (P21802 481-770 N549K limits assumed): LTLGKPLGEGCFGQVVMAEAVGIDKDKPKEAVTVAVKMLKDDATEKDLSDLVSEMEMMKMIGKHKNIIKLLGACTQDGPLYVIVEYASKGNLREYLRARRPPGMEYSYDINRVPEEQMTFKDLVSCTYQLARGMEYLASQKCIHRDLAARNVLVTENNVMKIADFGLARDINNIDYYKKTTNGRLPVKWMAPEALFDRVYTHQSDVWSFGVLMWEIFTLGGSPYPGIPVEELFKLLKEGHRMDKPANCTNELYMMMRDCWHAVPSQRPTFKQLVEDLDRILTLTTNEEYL
# T3 sequence (P21802 481-770 V564I limits assumed): as the sequence (P21802 481-770 N549K limits assumed) above, with K69N, V84I counted along it
# T6 sequence (P22607 472-761 V555M limits assumed): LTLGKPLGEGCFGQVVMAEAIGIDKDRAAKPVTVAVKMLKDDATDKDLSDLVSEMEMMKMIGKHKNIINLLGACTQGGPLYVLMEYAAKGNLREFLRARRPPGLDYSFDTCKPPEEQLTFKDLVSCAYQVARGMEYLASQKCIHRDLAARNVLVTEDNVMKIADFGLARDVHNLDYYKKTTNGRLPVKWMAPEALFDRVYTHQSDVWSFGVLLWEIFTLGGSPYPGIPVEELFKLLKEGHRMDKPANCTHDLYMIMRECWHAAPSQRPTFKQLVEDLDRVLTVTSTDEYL
# T5 sequence (P21802 481-770 K659M limits assumed): as the sequence (P21802 481-770 N549K limits assumed) above, with K69N, K179M counted along it
# T1 sequence (P21802 481-770 V564F limits assumed): as the sequence (P21802 481-770 N549K limits assumed) above, with K69N, V84F counted along it
# T2 sequence (P21802 481-770 V564L limits assumed): as the sequence (P21802 481-770 N549K limits assumed) above, with K69N, V84L counted along it
# T7 sequence (P22607 472-761 N540K limits assumed): as the sequence (P22607 472-761 V555M limits assumed) above, with N69K, M84V counted along it
SMILES,IC50 (FGFR2 V564F) [nM],IC50 (FGFR2 V564L) [nM],IC50 (FGFR2 V564I) [nM],IC50 (FGFR2 N549K) [nM],IC50 (FGFR2 K659M) [nM],IC50 (FGFR3 V555M) [nM],IC50 (FGFR3 N540K) [nM]
"C=CC(=O)N1CC[C@H](n2cc(C#Cc3ccc4oc(C5CC5)nc4c3)c3c(N)ncnc32)C1 [Example 1, (S)-1-(3-(4-amino-5-((2-cyclopropylbenzo[d]oxazol-5-yl)ethynyl)-7H-pyrrolo[2,3-d]pyrimidin-7-yl)pyrrolidin-1-yl)prop-2-en-1-one]",0.5 to 5,0.5 to 5,≤ 0.5,0.5 to 5,0.5 to 5,0.5 to 5,0.5 to 5
"CN(C)C/C=C/C(=O)N1CC(n2nc(C#Cc3c(F)cc4sc(C5CC5)nc4c3F)c3c(N)ncnc32)C1 [Example 78, (E)-1-(3-(4-amino-3-((2-cyclopropyl-4,6-difluoro-benzo[d]thiazol-5-yl)ethynyl)-1H-pyrazolo[3,4-d]pyrimidin-1-yl)azetidin-1-yl)-4-(dimethylamino)but-2-en-1-one]",≤ 0.5,0.5 to 5,,0.5 to 5,5 to 50,≤ 0.5,5 to 50
"C=CC(=O)N1CC[C@H](n2nc(C#Cc3c(F)cc4sc(C5CC5)nc4c3F)c3c(N)ncnc32)C1 [Example 62, (S)-1-(3-(4-amino-3-((2-cyclopropyl-4,6-difluoro-benzo[d]thiazol-5-yl)ethynyl)-1H-pyrazolo[3,4-d]pyrimidin-1-yl)pyrrolidin-1-yl) prop-2-en-1-one]",≤ 0.5,0.5 to 5,≤ 0.5,0.5 to 5,5 to 50,0.5 to 5,0.5 to 5
"C=CC(=O)N1CC[C@H](n2nc(C#Cc3ccc4oc(C5CC5)nc4c3)c3c(N)ncnc32)C1 [Example 20, (S)-1-(3-(4-amino-3-((2-cyclopropylbenzo[d]oxazol-5-yl)ethynyl)-1H-pyrazolo [3,4-d]pyrimidin-1-yl)pyrrolidin-1-yl)prop-2-en-1-one]",0.5 to 5,0.5 to 5,≤ 0.5,0.5 to 5,5 to 50,0.5 to 5,0.5 to 5
"C=CC(=O)N1C[C@@H](n2nc(C#Cc3c(F)cc4sc(C5CC5)nc4c3F)c3c(N)ncnc32)C[C@@H]1COC [Example 68, 1-((2R,4S)-4-(4-amino-3-((2-cyclopropyl-4,6-difluoro-benzo[d]thiazol-5-yl)ethynyl)-1H-pyrazolo[3,4-d]pyrimidin-1-yl)-2-(methoxy-methyl)pyrrolidin-1-yl) prop-2-en-1-one]",≤ 0.5,≤ 0.5,,≤ 0.5,0.5 to 5,≤ 0.5,0.5 to 5

# Results, then the molecule that gave them:
IC50 (FGFR2 V564F) [nM],IC50 (FGFR2 V564L) [nM],IC50 (FGFR2 V564I) [nM],IC50 (FGFR2 N549K) [nM],IC50 (FGFR2 K659M) [nM],IC50 (FGFR3 V555M) [nM],IC50 (FGFR3 N540K) [nM],SMILES
≤ 0.5,0.5 to 5,≤ 0.5,0.5 to 5,5 to 50,≤ 0.5,0.5 to 5,"C=CC(=O)N1CC[C@H](n2nc(C#Cc3c(F)cc4oc(N5CCC5)nc4c3F)c3c(N)ncnc32)C1 [Example 74, (S)-1-(3-(4-amino-3-((2-(azetidin-1-yl)-4.6-difluoro-benzo[d]oxazol-5-yl)ethynyl)-1H-pyrazolo[3,4-d]pyrimidin-1-yl)pyrrolidin-1-yl)prop-2-en-1-one]"
≤ 0.5,0.5 to 5,,0.5 to 5,5 to 50,0.5 to 5,5 to 50,"CN(C)C/C=C/C(=O)N1CC(n2nc(C#Cc3c(F)cc4oc(N5CCC5)nc4c3F)c3c(N)ncnc32)C1 [Example 77, (E)-1-(3-(4-amino-3-((2-(azetidin-1-yl)-4,6-difluorobenzo[d]oxazol-5-yl)ethynyl)-1H-pyrazolo[3,4-d]pyrimidin-1-yl)azetidin-1-yl)-4-(dimethylamino)but-2-en-1-one]"
0.5 to 5,,,,,0.5 to 5,5 to 50,"C=CC(=O)N1CC[C@H](n2nc(C#Cc3c(F)cc4oc(NC)nc4c3F)c3c(N)ncnc32)C1 [Example 67, (S)-1-(3-(4-amino-3-((4,6-difluoro-2-(methylamino)benzo[d]oxazol-5-yl)ethynyl)-1H-pyrazolo[3,4-d]pyrimidin-1-yl)pyrrolidin-1-yl)prop-2-en-1-one]"
